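Grown in 96-well plates, cells were treated for 48 hours with each compound at five concentrations. Insufficient inhibition: endpoint recorded as highest concentration tested. At the TGI there is no net growth.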
Assays:
Experiment in all cases: growth of human tumour cells (NCI), 48 h
[1] = system: SK-MEL-28 melanoma
[2] = system: A498 renal
[3] = system: UO-31 renal
[4] = system: UACC-62 melanoma
[5] = system: ACHN renal
[6] = system: LOX IMVI melanoma
[7] = system: HS 578T breast
[8] = system: MDA-MB-231 breast
[9] = system: NCI-H23 lung
[10] = system: UACC-257 melanoma
[11] = system: 786-0 renal
[12] = system: SK-MEL-2 melanoma
[13] = system: NCI-H522 lung
[14] = system: SR leukemia
[15] = system: SNB-75 CNS
[16] = system: SNB-19 CNS
[17] = system: MDA-N
[18] = system: DU-145 prostate
[19] = system: T-47D breast
[20] = system: SF-268 CNS
[21] = system: MOLT-4 leukemia
[22] = system: CCRF-CEM leukemia
[23] = system: RPMI-8226 leukemia
[24] = system: HCT-116 colon
[25] = system: BT-549 breast
[26] = system: MCF7 breast
[27] = system: A549 NSCLC
[28] = system: OVCAR-8 ovarian
[29] = system: KM12 colon
[30] = system: CAKI-1 renal
[31] = system: EKVX NSCLC
[32] = system: SN12C renal
[33] = system: HOP-62 NSCLC
[34] = system: SF-539 CNS
[35] = system: NCI-H460 lung
[36] = system: NCI/ADR-RES ovarian
[37] = system: SK-MEL-5 melanoma
[38] = system: K-562 leukemia
[39] = system: U251 CNS
[40] = system: PC-3 prostate
[41] = system: OVCAR-4 ovarian
[42] = system: TK-10 renal
[43] = system: IGROV1 ovarian
[44] = system: NCI-H226 lung
[45] = system: HL-60(TB) leukemia
[46] = system: M14 melanoma
[47] = system: OVCAR-3 ovarian
[48] = system: COLO 205 colon
[49] = system: OVCAR-5 ovarian
[50] = system: HCT-15 colon
[51] = system: HT29 colon
[52] = system: SK-OV-3 ovarian
[53] = system: MDA-MB-435
[54] = system: SW-620 colon
[55] = system: RXF 393 renal
[56] = system: HCC-2998 colon
[57] = system: MALME-3M melanoma
[58] = system: SF-295 CNS
[59] = system: HOP-92 NSCLC

Measured: TGI

COc1cc([N+](=O)[O-])c(S(=O)(=O)O)cc1N
> 100 µM: [1] | [2] | [3] | [4] | [5] | [6] | [7] | [8] | [9] | [10] | [11] | [12] | [13] | [14] | [15] | [16] | [17] | [18] | [19] | [20] | [21] | [22] | [23] | [24] | [25] | [26] | [27] | [28] | [29] | [30] | [31] | [32] | [33] | [34] | [35] | [36] | [37] | [38] | [39] | [40] | [41] | [42] | [43] | [44] | [45] | [46] | [47] | [48] | [49] | [50] | [51] | [52] | [53] | [54]

COC(=O)/C=C\[C@@H]1[C@H](C)N1S(=O)(=O)c1ccc(C)cc1 (some centres undefined)
> 100 µM: [1] | [2] | [4] | [5] | [6] | [7] | [8] | [55] | [9] | [10] | [11] | [12] | [13] | [14] | [16] | [17] | [18] | [19] | [20] | [21] | [22] | [23] | [24] | [56] | [25] | [26] | [27] | [28] | [30] | [32] | [33] | [34] | [35] | [36] | [37] | [38] | [39] | [40] | [57] | [41] | [42] | [43] | [44] | [58] | [45] | [46] | [47] | [48] | [49] | [50] | [51] | [52] | [53] | [54]

COC(=O)C1=C([C@H]2COC(C)(C)O2)[C@H]2C[C@@H]1[C@@H]1OC(C)(C)O[C@@H]12
> 100 µM: [1] | [59] | [2] | [3] | [4] | [5] | [6] | [7] | [8] | [55] | [9] | [10] | [11] | [12] | [13] | [14] | [15] | [16] | [17] | [18] | [19] | [20] | [21] | [22] | [23] | [24] | [56] | [25] | [26] | [27] | [28] | [29] | [31] | [32] | [33] | [34] | [35] | [36] | [37] | [38] | [39] | [40] | [57] | [41] | [42] | [43] | [44] | [58] | [45] | [46] | [47] | [48] | [49] | [50] | [51] | [52] | [53] | [54]

C[N+]1(C)CCOC(O)(c2ccccc2)C1 (centres undefined)
> 100 µM: [1] | [59] | [2] | [3] | [4] | [5] | [6] | [7] | [8] | [55] | [9] | [10] | [11] | [12] | [13] | [14] | [15] | [16] | [17] | [18] | [19] | [20] | [21] | [22] | [23] | [24] | [25] | [26] | [27] | [28] | [29] | [30] | [31] | [32] | [33] | [34] | [35] | [36] | [37] | [38] | [39] | [40] | [57] | [41] | [42] | [43] | [44] | [58] | [45] | [46] | [47] | [48] | [49] | [50] | [51] | [52] | [53] | [54]
